Where two headings read alike, the source gives them in different places.
Key:
[1] = system: murine cytotoxic T-lymphocyte responses; assay: cells; format: cell-based; settings: for CTL activity (% specific ^51 Cr release): 90:1 effector to target
Excerpt: Immunosuppressive Activity of Vitamin D compounds on cytotoxic T lymphocyte Responses-General Test Description
Cytotoxic thymus-derived lymphocytes (CTL) constitute an important aspect of immune function and, as a result, play a key role in the rejection of grafted cells, tissues and organs. It is, therefore, essential to suppress CTL generation in a clinical situation in which CTL function is antithetical to the desired outcome as, for example, in transplantation. Cytotoxic T-lymphocytes have been studied for several years by many investigators and methods to evaluate CTL responses in vitro are well established.
As described below, CTL responses as affected by Vitamin D derivatives, were studied in vitro using cells from lab animals and human volunteers. Cytotoxic T-lymphocytes were generated from responder lymphoid cells in tissue culture medium during an incubation period of 6 days by exposure to foreign stimulator cells, i.e. from a genetically disparate source. A portion of the resultant effector cells were CTL capable of killing fresh cells related to the stimulator cells employed in the 6 day culture. To detect killing of cells by CTL, fresh target cells were incubated in excess ^51 chromium (as sodium chromate) until they were extensively labelled. Since target cells will retain the internalized radioisotope as long as they are viable but release the label when they are killed, CTL activity was assessed by quantitating the chromium released from target cells after a 4 or 18 hour incubation with CTL. Immunosuppression produced by Vitamin D derivatives was gauged as the ability to inhibit CTL responses during the initial incubation period relative to control cultures to which no Vitamin D derivative was added.
Female BALB/c By and C57BL/6 mice were obtained from Jackson Laboratories and were used between 8 and 10 weeks of age. Mice were given food and water ad libitum and were kept in a 12 hour light and 12 hour dark cycle.
For murine cultures, minimal essential medium with Hank's salts was supplemented to 1 millimolar with sodium pyruvate, to 0.1 millimolar with nonessential amino acids, to 2 millimolar with 1-glutamine, to 10% (v/v) with heat-inactivated fetal bovine serum, to 50 micrograms per ml with gentamicin, and to 1000 milligrams per liter with sodium bicarbonate and was used as tissue culture medium.
Stock solutions of Vitamin D derivatives were made in argon-saturated ethanol at a final concentration of 1×10^-2 molar, were covered with argon before sealing and were stored at -20° C. in the dark. Reduced lighting conditions were always employed when working with compounds. Compounds were diluted in tissue culture medium to 1×10^-4 molar and all subsequent dilutions were done in tissue culture medium containing 1% v/v ethanol. The final dilution into culture vessels was 1:10 thus keeping the vehicle concentration constant at 0.1% while varying the concentration of compound as tabulated in the results. For purposes of control, mixed leukocyte cultures were incubated in medium only (medium control) or in medium containing a final concentration of 0.1% ethanol (vehicle control).
Murine cytotoxic T-lymphocytes were generated in mixed leukocyte cultures by known methods. Specifically, single cell suspensions were prepared from spleens by gentle disruption in balanced salt solution (Hanks' balanced salt solution supplemented to 10%, v/v, with fetal bovine serum). After sedimentation on ice to remove particulate debris, cell suspensions were centrifuged at 400xg and were resuspended in fresh balanced salt solution. Cells to be used as stimulator cells were precluded from proliferating or generating cytotoxic T-lymphocytes by exposure to 1000 rads of gamma irradiation using a ^137 cesium source. […]

[2] = system: human cytotoxic T-lymphocyte responses; assay: Inhibition of human CTL responses (mixed leukocyte-tumor cultures, HT-144 melanoma, ^51 Cr release); format: cell-based; settings: for inhibition at 1 µM / inhibition at 0.1 µM: Homo sapiens, T-lymphocyte, read-out: Inhibition of CTL activity (%)
Method: Human cells for the tests described below were taken from four donors designated I, II, III, and IV in the tables below.
Stock solutions of Vitamin D derivatives were prepared as they were prepared above in the murine tests.
Human cytotoxic T-lymphocytes were generated in mixed leukocyte-tumor cultures by known methods. Specifically, blood from normal volunteer donors was drawn into heparinized syringes, diluted 1:1 with calcium-magnesium free Hanks' balanced salt solution (Ca-Mg free HBSS), and layered over lymphocyte separation medium (Litton Bionetics, Kensington, MD). After centrifugation at 500xg for 20-30 min at room temperature, peripheral blood mononuclear cells were harvested from the interface. The peripheral blood mononuclear leukocytes were centrifuged and resuspended in Ca-Mg free HBSS and were subsequently separated from platelets by centrifugation at 500xg through a solution of 20% sucrose and 1% human AB serum in Ca-Mg free HBSS. The cells were washed once and finally resuspended in tissue culture medium. […] Cells to be used as stimulator cells in mixed leukocyte-tumor cultures were irradiated with 10,000 rads of gamma irradiation to preclude proliferation in culture. Mixed leukocyte-tumor cell cultures were established in 16 mm tissue culture wells at a final volume of 1.5 ml per well containing 2×10^6 peripheral blood mononuclear leukocytes and 5×10^4 irradiation-inactivated stimulator cells. In order to prevent the generation of nonspecific cytotoxic cells in these cultures, hydrocortisone sodium succinate was added to each culture at a final concentration of 1×10^-5 M. Mixed leukocyte-tumor cultures were incubated for 6 days in a humidified atmosphere of 5% CO2 in air.
Labelled target cells were washed free of unbound isotope by 3 serial washes in tissue culture medium and were finally resuspended at a concentration of 5×10^4 cells per ml.
Assays of human cytotoxic T-lymphocytes were done by known methods. Specifically, one-tenth ml aliquots of ^51 Cr-labelled target cell suspension were added to "half area" microtest plates and were incubated at 37° C. for 18 hours in a humidified atmosphere of 5% CO2 in air to permit the cells to adhere and spread on the floor of each well. Culture medium was then aspirated from each well and was replaced with 0.1 ml of tissue culture medium containing cells harvested from mixed leukocyte-tumor cultures which had been processed as described for murine mixed leukocute cultures, above. Control wells for measurement of spontaneous ^51 Cr release received medium without effector cells and wells for measurement of maximal releasable ^51 Cr received 0.1 ml of 2% sodium dodecyl sulfate in distilled water. After overnight incubation at 37° in a humidified atmosphere of 5% CO2 in air, 0.05 ml of cell-free supernatant was withdrawn from each well and the amount of released ^51 Cr was quantitated using a gamma spectrometer. The percentage of specific ^51 Cr release (CTL activity) and the percent inhibition of CTL activity were calculated with the same formulas used above for the murine CTL assay.
Tests conducted on human cytotoxic T-lymphocyte responses are reported as the mean±standard error of the mean from triplicate ^51 Cr release determinations on pooled cells from duplicate control or test cultures.

[3] = Test 1 (hexafluoro compounds), donor I, 1 × 10^-6 molar, 0.1% ethanol, effector to target 8:1
[4] = Test 1 (hexafluoro compounds), donor I, 1 × 10^-7 molar, 0.1% ethanol, effector to target 8:1

| SMILES | inhibition at 10 µM ([1]; Mus musculus, T-lymphocyte, Table I, 1 × 10^-5 molar, vs vehicle control, read-out: Inhibition of CTL activity (%)) [%] | inhibition at 1 µM ([1]; Mus musculus, T-lymphocyte, Table I, 1 × 10^-6 molar, vs vehicle control, read-out: Inhibition of CTL activity (%)) [%] | inhibition at 0.1 µM ([1]; Mus musculus, T-lymphocyte, Table I, 1 × 10^-7 molar, vs vehicle control, read-out: Inhibition of CTL activity (%)) [%] | inhibition at 0.01 µM ([1]; Mus musculus, T-lymphocyte, Table I, 1 × 10^-8 molar, vs vehicle control, read-out: Inhibition of CTL activity (%)) [%] | inhibition at 0.001 µM ([1]; Mus musculus, T-lymphocyte, Table I, 1 × 10^-9 molar, vs vehicle control, read-out: Inhibition of CTL activity (%)) [%] | inhibition at 0.0001 µM ([1]; Mus musculus, T-lymphocyte, Table I, 1 × 10^-10 molar, vs vehicle control, read-out: Inhibition of CTL activity (%)) [%] | CTL activity (% specific ^51 Cr release) ([1]; Table I, 1 × 10^-5 molar) | CTL activity (% specific ^51 Cr release) ([1]; Table I, 1 × 10^-6 molar) | CTL activity (% specific ^51 Cr release) ([1]; Table I, 1 × 10^-7 molar) | CTL activity (% specific ^51 Cr release) ([1]; Table I, 1 × 10^-8 molar) | CTL activity (% specific ^51 Cr release) ([1]; Table I, 1 × 10^-9 molar) | CTL activity (% specific ^51 Cr release) ([1]; Table I, 1 × 10^-10 molar) | suppression of murine cytotoxic T-lymphocyte responses (in words) ([1]; in vitro) | inhibition at 1 µM [2, 3] [%] | inhibition at 0.1 µM [2, 4] [%] | CTL activity (% specific ^51 Cr release) [2, 3] [% specific ^51 Cr release] | CTL activity (% specific ^51 Cr release) [2, 4] [% specific ^51 Cr release] | inhibition at 0.1 µM [2] [%] | inhibition at 1 µM [2] [%] |
| --- | --- | --- | --- | --- | --- | --- | --- | --- | --- | --- | --- | --- | --- | --- | --- | --- | --- | --- | --- |
| C=C1/C(=C\C=C2/CCC[C@]3(C)[C@@H]([C@H](C)CC4CC(C)(O)C(=O)O4)CC[C@@H]23)C[C@@H](O)C[C@@H]1O (stereo partly drawn) [1α,25-(OH)2 --D3-(26,23)-lactone, 1α,25-Dihydroxycholecalciferol-26,23-lactone] | 80 | 63 | 37 | 9 | 3 | 7 | 11 | 20 | 34 | 49 | 52 | 50 | suppress murine cytotoxic T-lymphocyte responses |  |  |  |  |  |  |
| C=C1/C(=C\C=C2/CCC[C@]3(C)[C@@H]([C@H](C)C=CCC(O)(C(F)(F)F)C(F)(F)F)CC[C@@H]23)C[C@@H](O)C[C@@H]1O [26,26,26,27,27,27-Hexafluoro-1α,25-dihydroxy-Δ^22-cholecalciferol] |  |  |  |  |  |  |  |  |  |  |  |  |  | 80 | 64 | 13 ± 0.1 | 23 ± 2 |  |  |
| C=C1/C(=C\C=C2/CCC[C@]3(C)[C@@H]([C@H](C)CCCC(O)(C(F)(F)F)C(F)(F)F)CC[C@@H]23)C[C@@H](O)C[C@@H]1O [26,26,26,27,27,27-hexafluoro-1α,25-dihydroxycholecalciferol] |  |  |  |  |  |  |  |  |  |  |  |  |  |  |  | 15 ± 2 | 23 ± 3 | 64 | 77 |

From US4749710A, “Immunosuppressive agents” (priority 1985, dated 1988)
